Measured values reported in patent US20020065212A1, “METHODS OF TREATING DISEASE USING SERTOLI CELLS AND ALLOGRAFTS OR XENOGRAFTS” (priority 1996, published 2002).

Legend:
[1] = system: spontaneously diabetic BB/Wor dp rats; assay: Pancreatic and testicular insulin and glucagon content; format: in vivo, rat
[2] = system: spontaneously diabetic BB/Wor dp rats; assay: Metabolic parameters, serum insulin and glucagon after intratesticular islet grafts; format: in vivo, rat
From the text: This study examined insulin and glucagon secretory patterns in spontaneously diabetic bb/Wor dp rats transplanted with abdominal, intratesticular, islet grafts. Diabetic, BB/Wor dp, rats received intratesticular islet grafts from MHC-compatible BB/Wor dr rats and no immunosuppression. After a period of 74±15 days, of normoglycemia, three different groups (controls; BB/Wor dp, transplanted; and BB/Wor dp, insulin treated) were given the following challenges; (1) an oral glucose tolerance test (OGTT), (2) a single oral dose of glipizide, followed by an OGTT, and (3) arginine, by intravenous infusion. The results of this study are shown in Tables 1 and 2 and FIGS. 5 and 6.

insulin
Pancreatic Glucagon content ([1]; pancreas): 6.9 ± 0.80 ng/mg | Pancreatic Insulin content ([1]; pancreas): 0.76 ± 0.12 µg/g | Testicular Glucagon content ([1]; testes fractions): 0.0 ng/mg | Testicular Insulin content ([1]; testes fractions): 0.0 µg/g | Plasma Glucose ([2]; After 2.5 months): 350 ± 40 mg/dL | Plasma Glucose ([2]; Prior to therapy): 510 ± 13+ mg/dl | Fasting Plasma Glucagon ([2]; rat, in vivo): 47.4 ± 4.9 pg/mL | Weight gain ([2]; rat, in vivo): 48 ± 14$ g
